In BindingDB's records for doi:10.1126/science.abf1611 (Sichuan University, 2021):
“And” between values parts separate entries of the source, which are not always exact repeats. Equal entries are not always repeated.

Columns and labels:
[1] = target: T1, Replicase polyprotein 1ab (Severe acute respiratory syndrome coronavirus 2, UniProt P0DTD1); assay: The enzymatic inhibition assay
Experimental: The enzymatic inhibition assay was carried out with a final concentration of 100 nM recombinant SARS-CoV-2 Mpro and 20 μM FRET substrate. […] The initial velocities were calculated from the first 1 min of each reaction curve. The IC50 values were calculated using a dose-response model in GraphPad Prism 8.0 software. All experiments were performed in triplicate, and the values are presented as mean ± standard deviation (SD).

[2] = target: T1, Replicase polyprotein 1ab; assay: scanning fluorimetry assay of HPAEpiC cells
Experimental: The differential scanning fluorimetry (DSF) assay was carried out on a CFX96 real-time PCR Detection System (Bio-Rad). […] The Mpro protein (final concentration: 2 μM) was pre-incubated with 40 μM of compounds for 30 min. […] The melt temperature (Tm) was calculated by using a Boltzmann model in GraphPad Prism 8.0 software. The thermal shift (ΔTm) was calculated using the equation ΔTm=Tm(compound)-Tm(DMSO). All experiments were performed in triplicate, and the values are presented as mean ± SD. HPAEpiC cells are used.

[3] = target: T1, Replicase polyprotein 1ab

| Compound | IC50 [1] | EC50 [2] | EC50 [3] |
| --- | --- | --- | --- |
| CC1(C)[C@@H]2[C@H](C(=O)N[C@H](C=O)C[C@@H]3CCNC3=O)N(C(=O)COc3ccc(C(F)(F)F)cc3)C[C@@H]21 [MI-07] | 43 nM | – | – |
| COc1ccc(OC(C)C(=O)N2C[C@@H]3CCC[C@H]3[C@@H]2C(=O)N[C@H](C=O)C[C@@H]2CCNC2=O)cc1 (stereo partly specified) [MI-26] | 69 nM | – | – |
| CC1(C)[C@@H]2[C@H](C(=O)N[C@H](C=O)C[C@@H]3CCNC3=O)N(C(=O)COc3ccc(F)c(F)c3)C[C@@H]21 [MI-05] | 13 nM | – | – |
| CC1(C)[C@@H]2[C@H](C(=O)N[C@H](C=O)C[C@@H]3CCNC3=O)N(C(=O)c3ccc4ccccc4c3)C[C@@H]21 [MI-01] | 453 nM | – | – |
| CC1(C)[C@@H]2[C@H](C(=O)N[C@H](C=O)C[C@@H]3CCNC3=O)N(C(=O)COc3ccc(Cl)c(Br)c3)C[C@@H]21 [MI-10] | 51 nM | – | – |
| O=C[C@H](C[C@@H]1CCNC1=O)NC(=O)[C@H]1[C@@H]2CCC[C@H]2CN1C(=O)COc1ccc(Cl)cc1 [MI-28] | – | 2.2 nM | 42 nM |
| CC1(C)[C@@H]2[C@H](C(=O)N[C@H](C=O)C[C@@H]3CCNC3=O)N(C(=O)COc3ccc4ccccc4c3)C[C@@H]21 [11b] | 52 nM and 27 nM | – | 75 nM |
| O=C[C@H](C[C@@H]1CCNC1=O)NC(=O)[C@H]1[C@@H]2CCC[C@H]2CN1C(=O)COc1ccc(Cl)c(Cl)c1 [MI-31] | 30 nM | 0.4 nM | 62 nM |
| O=C[C@H](C[C@@H]1CCNC1=O)NC(=O)[C@H]1[C@@H]2CCC[C@H]2CN1C(=O)c1cc2ccccn2n1 [MI-17] | 299 nM | – | – |
| O=C[C@H](C[C@@H]1CCNC1=O)NC(=O)[C@H]1[C@@H]2CCC[C@H]2CN1C(=O)COc1ccc(Cl)cc1F [MI-29] | 35 nM | – | – |
| CC1(C)[C@@H]2[C@H](C(=O)N[C@H](C=O)C[C@@H]3CCNC3=O)N(C(=O)COc3cc(F)cc(F)c3)C[C@@H]21 [MI-04] | 19 nM | – | – |
| CC1(C)[C@@H]2[C@H](C(=O)N[C@H](C=O)C[C@@H]3CCNC3=O)N(C(=O)CCc3cccc(F)c3)C[C@@H]21 [MI-03] | 17 nM | – | – |
| CC1(C)[C@@H]2[C@H](C(=O)N[C@H](C=O)C[C@@H]3CCNC3=O)N(C(=O)COc3ccc(Cl)cc3Cl)C[C@@H]21 [MI-14] | 13 nM | 0.3 nM | 85 nM |
| COc1ccc(OCC(=O)N2C[C@H]3[C@@H]([C@@H]2C(=O)N[C@H](C=O)C[C@@H]2CCNC2=O)C3(C)C)cc1F [MI-08] | 37 nM | – | – |
| O=C[C@H](C[C@@H]1CCNC1=O)NC(=O)[C@H]1[C@@H]2CCC[C@H]2CN1C(=O)COc1ccc2c(c1)OCCO2 [MI-27] | 94 nM | – | – |
| CC1(C)[C@@H]2[C@H](C(=O)N[C@H](C=O)C[C@@H]3CCNC3=O)N(C(=O)COc3ccc(Cl)cc3)C[C@@H]21 [MI-12] | 19 nM | 7.3 nM | 97 nM |
| O=C[C@H](C[C@@H]1CCNC1=O)NC(=O)[C@H]1[C@@H]2CCC[C@H]2CN1C(=O)/C=C/c1ccccc1 [MI-18] | 526 nM | – | – |
| O=C[C@H](C[C@@H]1CCNC1=O)NC(=O)[C@H]1[C@@H]2CCC[C@H]2CN1C(=O)c1cc2ccccc2[nH]1 [MI-16] | 153 nM | – | – |
| COc1ccc(/C=C/C(=O)N2C[C@@H]3CCC[C@H]3[C@@H]2C(=O)N[C@H](C=O)C[C@@H]2CCNC2=O)c(OC)c1 [MI-19] | 196 nM | – | – |
| COc1ccc(OCC(=O)N2C[C@H]3[C@@H]([C@@H]2C(=O)N[C@H](C=O)C[C@@H]2CCNC2=O)C3(C)C)cc1OC [MI-06] | 15 nM | – | – |
| CC1(C)[C@@H]2[C@H](C(=O)N[C@H](C=O)C[C@@H]3CCNC3=O)N(C(=O)COc3ccc(Br)cc3Cl)C[C@@H]21 [MI-11] | 13 nM | – | – |
| O=C[C@H](C[C@@H]1CCNC1=O)NC(=O)[C@H]1[C@@H]2CCC[C@H]2CN1C(=O)c1cccnc1 [MI-15] | 749 nM | – | – |
| CNc1ccc(/C=C/C(=O)N2C[C@@H]3CCC[C@H]3[C@@H]2C(=O)N[C@H](C=O)C[C@@H]2CCNC2=O)cc1 [MI-20] | 375 nM | – | – |
| COc1ccc(OCC(=O)N2C[C@@H]3CCC[C@H]3[C@@H]2C(=O)N[C@H](C=O)C[C@@H]2CCNC2=O)cc1 [MI-25] | 36 nM | – | – |
| Cc1cc(Cl)ccc1OCC(=O)N1C[C@@H]2CCC[C@H]2[C@@H]1C(=O)N[C@H](C=O)C[C@@H]1CCNC1=O [MI-32] | 20 nM | – | – |
| O=C[C@H](C[C@@H]1CCNC1=O)NC(=O)[C@H]1[C@@H]2CCC[C@H]2CN1C(=O)CCc1ccc(F)c(F)c1 [MI-22] | 17 nM | – | – |
| CN(C)c1ccc(CCC(=O)N2C[C@@H]3CCC[C@H]3[C@@H]2C(=O)N[C@H](C=O)C[C@@H]2CCNC2=O)cc1 [MI-24] | 378 nM | – | – |
| CC1(C)[C@@H]2[C@H](C(=O)N[C@H](C=O)C[C@@H]3CCNC3=O)N(C(=O)COc3ccc(Cl)c(Cl)c3)C[C@@H]21 [MI-13] | 12 nM | – | – |
